Experiments:
Type in all cases: functional, cell-based
MCF7 = test: Antiproliferative activity against human MCF7 cells after 72 hrs by MTT assay; conditions: MCF7, 72 h
HepG2 = test: Antiproliferative activity against human HepG2 cells after 72 hrs by MTT assay; conditions: HepG2, 72 h
MGC-803 = test: Antiproliferative activity against human MGC803 cells after 72 hrs by MTT assay; conditions: MGC-803, 72 h
A549 = test: Antiproliferative activity against human A549 cells after 72 hrs by MTT assay; conditions: A549, 72 h
HCT-116 = test: Antiproliferative activity against human HCT116 cells after 72 hrs by MTT assay; conditions: HCT-116, 72 h

Structure (SMILES)	IC50 (MCF7) [µM]	IC50 (HepG2) [µM]	IC50 (MGC-803) [µM]	IC50 (A549) [µM]	IC50 (HCT-116) [µM]
CC(=O)N[C@H]1[C@H](O[C@H]2CC[C@]3(C)[C@H]4CC=C5[C@@H]6CC(C)(C)CC[C@]6(C(=O)OCc6cn(-c7ccc(C)cc7C)nn6)CC[C@@]5(C)[C@]4(C)CC[C@H]3C2(C)C)O[C@H](CO[C@@H]2OC[C@H](O)[C@H](O)[C@@H]2O)[C@@H](O)[C@@H]1O	44.6	40.4	46.9	42.3	47.6
CC(=O)N[C@H]1[C@H](O[C@H]2CC[C@]3(C)[C@H]4CC=C5[C@@H]6CC(C)(C)CC[C@]6(C(=O)OCc6cn(-c7ccccc7)nn6)CC[C@@]5(C)[C@]4(C)CC[C@H]3C2(C)C)O[C@H](CO[C@@H]2OC[C@H](O)[C@H](O)[C@@H]2O)[C@@H](O)[C@@H]1O	21.9	18.3	19.6	9.97	25.2
O=c1[nH]cc(F)c(=O)[nH]1 [FLUOROURACIL]		48	31	71.1	38.3
CC(=O)N[C@H]1[C@H](O[C@H]2CC[C@]3(C)[C@H]4CC=C5[C@@H]6CC(C)(C)CC[C@]6(C(=O)OCc6cn(-c7ccccc7F)nn6)CC[C@@]5(C)[C@]4(C)CC[C@H]3C2(C)C)O[C@H](CO[C@@H]2OC[C@H](O)[C@H](O)[C@@H]2O)[C@@H](O)[C@@H]1O	47.6	18.9	20.7	24.2	23.5
CC(=O)N[C@H]1[C@H](O[C@H]2CC[C@]3(C)[C@H]4CC=C5[C@@H]6CC(C)(C)CC[C@]6(C(=O)OCc6cn(-c7ccc(Cl)cc7)nn6)CC[C@@]5(C)[C@]4(C)CC[C@H]3C2(C)C)O[C@H](CO[C@@H]2OC[C@H](O)[C@H](O)[C@@H]2O)[C@@H](O)[C@@H]1O	67.1	28.4	24.9	38.7	37.9
CC(=O)N[C@H]1[C@H](O[C@H]2CC[C@]3(C)[C@H]4CC=C5[C@@H]6CC(C)(C)CC[C@]6(C(=O)OCc6cn(-c7ccc(C#N)cc7)nn6)CC[C@@]5(C)[C@]4(C)CC[C@H]3C2(C)C)O[C@H](CO[C@@H]2OC[C@H](O)[C@H](O)[C@@H]2O)[C@@H](O)[C@@H]1O	15.8	17.5	18.2	22.6	8.86
CC(=O)N[C@H]1[C@H](O[C@H]2CC[C@]3(C)[C@H]4CC=C5[C@@H]6CC(C)(C)CC[C@]6(C(=O)OCc6cn(-c7ccc(Cl)cc7Cl)nn6)CC[C@@]5(C)[C@]4(C)CC[C@H]3C2(C)C)O[C@H](CO[C@@H]2OC[C@H](O)[C@H](O)[C@@H]2O)[C@@H](O)[C@@H]1O	29.1	32.7	31.3	36	38.8
CC(=O)N[C@H]1[C@H](O[C@H]2CC[C@]3(C)[C@H]4CC=C5[C@@H]6CC(C)(C)CC[C@]6(C(=O)OCc6cn(-c7cccc(Cl)c7)nn6)CC[C@@]5(C)[C@]4(C)CC[C@H]3C2(C)C)O[C@H](CO[C@@H]2OC[C@H](O)[C@H](O)[C@@H]2O)[C@@H](O)[C@@H]1O	18.7	8.1	10.9	7.69	11.5
COC(=O)c1ccccc1-n1cc(COC(=O)[C@]23CCC(C)(C)C[C@H]2C2=CC[C@@H]4[C@@]5(C)CC[C@H](O[C@@H]6O[C@H](CO[C@@H]7OC[C@H](O)[C@H](O)[C@@H]7O)[C@@H](O)[C@H](O)[C@H]6NC(C)=O)C(C)(C)[C@@H]5CC[C@@]4(C)[C@]2(C)CC3)nn1	86.8	68.9	76.3	66.7	38.2
CC(=O)N[C@H]1[C@H](O[C@H]2CC[C@]3(C)[C@H]4CC=C5[C@@H]6CC(C)(C)CC[C@]6(C(=O)OCc6cn(-c7cccc(C)c7)nn6)CC[C@@]5(C)[C@]4(C)CC[C@H]3C2(C)C)O[C@H](CO[C@@H]2OC[C@H](O)[C@H](O)[C@@H]2O)[C@@H](O)[C@@H]1O	20.2	10.6	11	14.5	7.1
COc1ccccc1-n1cc(COC(=O)[C@]23CCC(C)(C)C[C@H]2C2=CC[C@@H]4[C@@]5(C)CC[C@H](O[C@@H]6O[C@H](CO[C@@H]7OC[C@H](O)[C@H](O)[C@@H]7O)[C@@H](O)[C@H](O)[C@H]6NC(C)=O)C(C)(C)[C@@H]5CC[C@@]4(C)[C@]2(C)CC3)nn1	53.1	49.7	53	59.9	55.8
COc1ccc(-n2cc(COC(=O)[C@]34CCC(C)(C)C[C@H]3C3=CC[C@@H]5[C@@]6(C)CC[C@H](O[C@@H]7O[C@H](CO[C@@H]8OC[C@H](O)[C@H](O)[C@@H]8O)[C@@H](O)[C@H](O)[C@H]7NC(C)=O)C(C)(C)[C@@H]6CC[C@@]5(C)[C@]3(C)CC4)nn2)cc1	19.7	12.2	19.7	20.7	20
CC(=O)N[C@H]1[C@H](O[C@H]2CC[C@]3(C)[C@H]4CC=C5[C@@H]6CC(C)(C)CC[C@]6(C(=O)OCc6cn(-c7ccccc7C)nn6)CC[C@@]5(C)[C@]4(C)CC[C@H]3C2(C)C)O[C@H](CO[C@@H]2OC[C@H](O)[C@H](O)[C@@H]2O)[C@@H](O)[C@@H]1O	86.9	51.3	58.1	63.7	10.9
COc1cccc(-n2cc(COC(=O)[C@]34CCC(C)(C)C[C@H]3C3=CC[C@@H]5[C@@]6(C)CC[C@H](O[C@@H]7O[C@H](CO[C@@H]8OC[C@H](O)[C@H](O)[C@@H]8O)[C@@H](O)[C@H](O)[C@H]7NC(C)=O)C(C)(C)[C@@H]6CC[C@@]5(C)[C@]3(C)CC4)nn2)c1	20.9	6.47	11.6	13.3	12.4
CC(=O)N[C@H]1[C@H](O[C@H]2CC[C@]3(C)[C@H]4CC=C5[C@@H]6CC(C)(C)CC[C@]6(C(=O)OCc6cn(-c7ccccc7Br)nn6)CC[C@@]5(C)[C@]4(C)CC[C@H]3C2(C)C)O[C@H](CO[C@@H]2OC[C@H](O)[C@H](O)[C@@H]2O)[C@@H](O)[C@@H]1O	68.2	61.7	54.7	65.2	13.2
CC(=O)N[C@H]1[C@H](O[C@H]2CC[C@]3(C)[C@H]4CC=C5[C@@H]6CC(C)(C)CC[C@]6(C(=O)OCc6cn(-c7ccc(C(F)(F)F)cc7)nn6)CC[C@@]5(C)[C@]4(C)CC[C@H]3C2(C)C)O[C@H](CO[C@@H]2OC[C@H](O)[C@H](O)[C@@H]2O)[C@@H](O)[C@@H]1O	15.1	11.8	12.8	14.2	12.4
CC(=O)N[C@H]1[C@H](O[C@H]2CC[C@]3(C)[C@H]4CC=C5[C@@H]6CC(C)(C)CC[C@]6(C(=O)OCc6cn(-c7cccc(C#N)c7)nn6)CC[C@@]5(C)[C@]4(C)CC[C@H]3C2(C)C)O[C@H](CO[C@@H]2OC[C@H](O)[C@H](O)[C@@H]2O)[C@@H](O)[C@@H]1O	27.7	27.7	28.8	29.2	27

Reference: ChEMBL document CHEMBL4261580, “Novel antitumor compound optimized from natural saponin Albiziabioside A induced caspase-dependent apoptosis and ferroptosis as a p53 activator through the mitochondrial pathway” (Eur J Med Chem, 2018)
